# According to patent publication US20110172217A1, “RING-FUSED MORPHOLINE DERIVATIVE HAVING PI3K-INHIBITING ACTIVITY” (Shionogi & Co., Ltd., priority 2008, published 2011):
# Target: PI-3 kinase γ (Homo sapiens, UniProt P48736)
# Experiment: PI3Kγ inhibitory activity, PI3-kinase HTRF assay (inhibition ratio)
# Assay type: biochemical
# Details: 0.5 h, compound at 50 μmol/L
# Description: For each compound synthesized in the above Examples, PI3Kγ inhibitory activity was measured.
# The PI3Kγ inhibitory activity of a compound was evaluated using PI3-kinase HTRF™ assay (Millipore) according to the following procedure:
# To each well of a testing plate, 5 μL of a compound solution containing 10% DMSO (200 μmol/L or 40 μmol/L as the concentration of the compound), 5 μL of a substrate solution (40 μmol/L phosphatidylinositol (4,5)-bisphosphate, 20 mmol/L MgCl2, 10 mmol/L DTT), and 5 μL of a enzyme solution (80 μg/mL PI-3 kinase γ, 10 mmol/L MgCl2, 5 mmol/L DTT) were added, and then allowed to stand for 10 minutes.
# Then, 5 μL of a reaction solution (40 μmol/L ATP, 10 mmol/L MgCl2, 5 mmol/L DTT) was added thereto. After reacting for 30 minutes at room temperature, 5 μL of a solution containing EDTA and biotinylated phosphatidylinositol (3,4,5)-triphosphate were added to quench the reaction.
# 5 μL of a detection reagent containing a europium-labeled anti-GST antibody, the GST-tagged PH domain, and allophycocyanin-labeled streptavidin was added thereto. After 18 hours, HTRF (excitation wavelength: 330 nm, measured wavelengths: 620 nm and 665 nm) was measured.
# HTRF ratio was defined as the value obtained by dividing the amount of fluorescence obtained at the measured wavelength 665 nm by the amount of fluorescence obtained at 620 nm. The HTRF ratio in the absence of a compound was defined as 100% activity and the HTRF ratio in the absence of PI-3 kinase γ was defined as 0% activity to calculate an inhibition ratio which was defined as the PI3Kγ inhibitory activity of a compound at 50 μmol/L or 10 μmol/L.
# Chain of PI-3 kinase γ (P48736 whole entry): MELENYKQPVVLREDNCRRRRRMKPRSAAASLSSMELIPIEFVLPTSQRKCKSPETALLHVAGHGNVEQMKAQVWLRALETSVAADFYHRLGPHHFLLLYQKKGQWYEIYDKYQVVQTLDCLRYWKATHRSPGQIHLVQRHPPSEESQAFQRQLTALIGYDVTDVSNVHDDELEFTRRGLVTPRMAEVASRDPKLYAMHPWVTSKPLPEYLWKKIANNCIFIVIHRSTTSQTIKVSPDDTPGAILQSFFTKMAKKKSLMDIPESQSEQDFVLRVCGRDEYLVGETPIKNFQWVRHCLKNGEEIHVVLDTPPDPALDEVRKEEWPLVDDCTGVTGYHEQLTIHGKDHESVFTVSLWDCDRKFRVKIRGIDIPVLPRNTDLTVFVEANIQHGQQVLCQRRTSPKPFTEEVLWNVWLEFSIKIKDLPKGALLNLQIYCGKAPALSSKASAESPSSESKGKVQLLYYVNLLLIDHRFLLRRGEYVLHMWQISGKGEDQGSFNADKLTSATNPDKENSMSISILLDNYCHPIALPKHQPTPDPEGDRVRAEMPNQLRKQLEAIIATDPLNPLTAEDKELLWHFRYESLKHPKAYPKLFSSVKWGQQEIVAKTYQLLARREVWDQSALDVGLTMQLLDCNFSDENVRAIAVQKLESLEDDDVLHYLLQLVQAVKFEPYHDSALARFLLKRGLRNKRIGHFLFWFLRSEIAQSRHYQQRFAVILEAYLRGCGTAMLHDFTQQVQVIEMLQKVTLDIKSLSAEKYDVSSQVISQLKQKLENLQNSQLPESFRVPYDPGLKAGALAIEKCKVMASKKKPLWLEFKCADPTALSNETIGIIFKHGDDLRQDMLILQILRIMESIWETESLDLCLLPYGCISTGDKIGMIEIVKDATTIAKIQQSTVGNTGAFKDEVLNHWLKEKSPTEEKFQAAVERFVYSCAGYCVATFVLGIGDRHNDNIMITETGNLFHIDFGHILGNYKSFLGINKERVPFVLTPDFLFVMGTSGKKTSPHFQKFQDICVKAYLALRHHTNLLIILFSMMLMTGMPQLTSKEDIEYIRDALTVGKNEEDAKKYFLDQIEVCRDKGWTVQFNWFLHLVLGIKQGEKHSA
row,SMILES,inhibition at 50 µM
1,CNC(=O)c1ccc(-c2ccc3c(n2)N(C(=O)Nc2ccccc2)CCO3)cc1 [Compound I-70],71%
2,CC(C)(C)OC(=O)NCCOc1cccc(Nc2ccc3c(n2)N(C(=O)Nc2ccccc2)CCO3)c1 [Compound I-219],≥ 95%
3,Nc1ccc2c(n1)N(C(=O)Nc1ccccc1)CCO2 [Compound I-108],88%
4,O=C(O)c1ccc(-c2ccc3c(n2)N(C(=O)NCCO)CCO3)cc1 [Compound I-205],≥ 95%
5,CC(C)(C)OC(=O)COc1ccc(Nc2ccc3c(n2)N(C(=O)Nc2ccccc2)CCO3)cc1 [Compound I-213],≥ 95%
6,CCCc1ccc2c(n1)N(C(=O)Nc1ccccc1)CCO2 [Compound I-90],72%
7,CC(NC(=O)c1ccc2c(n1)N(C(=O)Nc1ccccc1)CCO2)C(=O)O (stereo not shown) [Compound I-38],76%
8,COC(=O)c1ccc(Nc2ccc3c(n2)N(C(=O)Nc2ccccc2)CCO3)c(OCCNC(=O)OC(C)(C)C)c1 [Compound I-216],≥ 95%
9,O=C(Nc1ccccc1)N1CCOc2ccc(-c3ccn[nH]3)nc21 [Compound I-187],≥ 95%
10,CC(=O)Nc1ccc2c(n1)N(C(=O)Nc1ccccc1)CCO2 [Compound I-174],79%
11,O=C(O)c1ccc(C(=O)Nc2ccc3c(n2)N(C(=O)Nc2ccccc2)CCO3)cc1 [Compound I-125],≥ 95%
12,O=C(Nc1ccccc1)N1CCOc2ccc(C3CCCCC3)nc21 [Compound I-86],82%
13,CC1(C/C=C/c2ccccc2)SC(N2CCOc3cccnc32)=NC1=O (stereo not shown) [Compound I-6],81%
14,CC(C)(C)OC(=O)CC(=O)Nc1cnc2c(c1)OCCN2C(=O)Nc1ccccc1 [Compound I-160],75%

# Continued, values first:
row,inhibition at 50 µM,SMILES
1,≥ 95%,CC(C)(C)OC(=O)N1CCN(c2cnc3c(c2)OCCN3C(=O)Nc2ccccc2)CC1C(=O)O (stereo not shown) [Compound I-245]
2,≥ 95%,O=C(O)CNC(=O)c1cccc(Nc2ccc3c(n2)N(C(=O)Nc2ccccc2)CCO3)c1 [Compound I-277]
3,≥ 95%,CC(C)(C)OC(=O)N1CCC(Nc2ccc3c(n2)N(C(=O)Nc2ccccc2)CCO3)CC1 [Compound I-231]
4,≥ 95%,CC(C)(C)OC(=O)COc1cccc(Nc2ccc3c(n2)N(C(=O)Nc2ccccc2)CCO3)c1 [Compound I-233]
5,≥ 95%,O=C(O)COc1cccc(Nc2cnc3c(c2)OCCN3C(=O)Nc2ccccc2)c1 [Compound I-241]
6,88%,O=C(O)Cn1cc(-c2cnc3c(c2)OCCN3C(=O)Nc2ccccc2)cn1 [Compound I-280]
7,78%,C#Cc1cccc(Nc2cnc3c(c2)OCCN3C(=O)Nc2ccccc2)c1 [Compound I-314]
8,90%,O=C(Nc1ccccc1)N1CCOc2cc(Nc3ccc(F)cc3Cl)cnc21 [Compound I-309]
9,91%,CCN(CC)c1cc(F)cc(Nc2cnc3c(c2)OCCN3C(=O)Nc2ccccc2)c1 [Compound I-328]
10,82%,O=C(Nc1ccccc1)N1CCOc2cc(Nc3ccc(CN4CCS(=O)(=O)CC4)cc3)cnc21 [Compound I-325]
11,93%,CC(C)(C)NC(=O)c1ccccc1Nc1cnc2c(c1)OCCN2C(=O)Nc1ccccc1 [Compound I-315]
12,≥ 95%,O=C(O)COc1ccc(Nc2ccc3c(n2)N(C(=O)Nc2ccccc2)CCO3)cc1 [Compound I-224]
13,≥ 95%,CC(C)(C)OC(=O)COc1ccc(Nc2cnc3c(c2)OCCN3C(=O)Nc2ccccc2)cc1 [Compound I-237]
14,≥ 95%,O=C(Nc1cccnc1)N1CCOc2cc(Nc3ccccc3)cnc21 [Compound I-271]
15,95%,O=C(Nc1ccccc1)N1CCOc2cc(Nc3ccc4c(c3)CCO4)cnc21 [Compound I-320]
16,≥ 95%,NCCOc1ccc(Nc2ccc3c(n2)N(C(=O)Nc2ccccc2)CCO3)cc1 [Compound I-221]
17,≥ 95%,NCCOc1ccccc1Nc1ccc2c(n1)N(C(=O)Nc1ccccc1)CCO2 [Compound I-223]
